pKi: −log10 of the molar value.
Target: Urokinase-type plasminogen activator (Homo sapiens) (UniProt P00749)
Test: Binding affinity to uPA

pKi	SMILES
12.00	N#Cc1cc(-c2ccccc2)n(Cc2nc3ccccc3[nH]2)c1N
11.52	N#Cc1cc(-c2ccccc2)n(-c2ccc(Cl)cc2)c1N
11.52	N#Cc1cc(-c2ccccc2)n(-c2ccc(Br)cc2)c1N

Source: BindingDB's records for doi:10.1016/j.bmc.2012.10.010 (National Research Center, 2012)
